Measurements: paper PMC7587356, “High-Throughput Screening for Inhibitors of the SARS-CoV-2 Protease Using a FRET-Biosensor” (Molecules, 2020)
Where two headings read alike, the source gives them in different places.

How the values were obtained:
[1] = target: T1, SARS-CoV-2 3CLpro (Severe acute respiratory syndrome coronavirus 2, UniProt P0DTD1); test: biochemical; type: biochemical; conditions: for inhibition at 5 µM: 4 h
[2] = target: T1, SARS-CoV-2 3CLpro; test: biochemical; type: biochemical
[3] = sheet LOPAC_screen_w_protease, primary screen at 5 µM, mean of two replicates, read-out: mean (LOPAC screen with protease)
[4] = sheet LOPAC_screen_w_protease, primary screen at 5 µM, replicate 1, read-out: Replicate_1 (LOPAC screen with protease)
[5] = sheet LOPAC_screen_w_protease, primary screen at 5 µM, replicate 2, read-out: Replicate_2 (LOPAC screen with protease)
[6] = with 0.01% Triton X-100; mean ± SD of triplicate; 4 h, 30 °C; read-out: A) EC50 with Triton X-100
[7] = without Triton X-100; mean ± SD of triplicate; 4 h, 30 °C; read-out: B) EC50 without Triton X-100
[8] = sheet LOPAC_screen_w_protease, primary screen at 5 µM, mean of two replicates
[9] = sheet LOPAC_screen_w_protease, primary screen at 5 µM, replicate 1
[10] = sheet LOPAC_screen_w_protease, primary screen at 5 µM, replicate 2
[11] = EC50 with Triton X-100 / EC50 without Triton X-100, ratio greater than 2 suggests aggregation-based inhibitor
[12] = with 0.01% Triton X-100, read-out: EC50
[13] = read-out: Replicate_1 (LOPAC screen with protease)
[14] = read-out: Replicate_2 (LOPAC screen with protease)
[15] = read-out: mean (LOPAC screen with protease)

SMILES | EC50 [2, 6] [nM] | EC50 [2, 7] [nM] | mean (LOPAC screen with protease) [1, 8] | Replicate_1 (LOPAC screen with protease) [1, 9] | Replicate_2 (LOPAC screen with protease) [1, 10] | Ratio (A/B) [2] | also measured
CCOC(=O)[C@]12CC1/C(=N\O)c1ccccc1O2 (mixture of isomers) [CPCCOEt, reference compound] | > 20000 | > 20000 |  |  |  |  | inhibition at 5 µM [1, 3]: 26.9%; inhibition at 5 µM [1, 4]: 0.406%; inhibition at 5 µM [1, 5]: 53.3%
NC(Cc1cc(O)c(O)cc1O)C(=O)O (racemic) [6-Hydroxy-dl-DOPA, reference compound] | 1320 ± 118 | 652 ± 259 | 66.3118 | 69.7112 | 62.9123 |  | Ratio (A/B) [2, 11]: 2.0
CC1(NCC(O)COc2cccc3[nH]ccc23)CCC(C(C)(C)NC(=O)CBr)CC1 (racemic) [(±)-Pindobind, reference compound] | 4690 ± 3320 | > 20000 | 33.6627 | 33.8938 | 33.4316 |  | 
O=c1oc(Cl)c(Cl)c2ccccc12 [3,4-Dichloroisocoumarin, reference compound] | 8700 ± 2720 | 5380 ± 612 |  |  |  | 1.6 | inhibition at 5 µM [1, 3]: 30.4%; inhibition at 5 µM [1, 4]: 30.8%; inhibition at 5 µM [1, 5]: 30%
O=C(O)c1cc[c]([Hg][Cl])cc1 [4-Chloromercuribenzoic acid, reference compound] |  | 95 ± 7 | 103.38 | 104.085 | 102.675 | 0.9 | EC50 [2, 12]: 85 nM
O=Nc1ccc2oc(=O)ccc2c1 [6-Nitroso-1,2-benzopyrone, reference compound] | 882 ± 110 | 559 ± 123 | 91.133 | 92.4944 | 89.7716 | 1.6 | 
CC(C)(C)c1ccc(S(=O)(=O)/C=C/C#N)cc1 [Bay 11-7085, reference compound] | 1620 ± 103 | 807 ± 120 | 90.2992 | 92.052 | 88.5464 |  | Ratio (A/B) [2, 11]: 2.0
O=C1O/C(=C/Br)CCC1c1cccc2ccccc12 (stereo not shown) [Bromoenol lactone, reference compound] | 817 ± 121 | 757 ± 73 |  |  |  | 1.1 | inhibition at 5 µM [1, 13]: 100%; inhibition at 5 µM [1, 14]: 99.7%; inhibition at 5 µM [1, 15]: 99.9%
O=C(/C=C/c1ccc(O)c(O)c1)OCCc1ccccc1 [Caffeic acid phenethyl ester, reference compound] | > 20000 | > 20000 |  |  |  |  | inhibition at 5 µM [1, 3]: 29.6%; inhibition at 5 µM [1, 4]: 30.7%; inhibition at 5 µM [1, 5]: 28.6%
Oc1cc2c(cc1O)CN(C(=S)NCCc1ccc(Cl)cc1)CCC2 [Capsazepine, reference compound] |  |  |  |  |  | 1.4 | inhibition at 5 µM [1, 13]: 91.9%; inhibition at 5 µM [1, 14]: 90.5%; inhibition at 5 µM [1, 15]: 91.2%; EC50 ([2]; A) EC50 with Triton X-100): 944 ± 98 nM; EC50 ([2]; B) EC50 without Triton X-100): 668 ± 330 nM
CN(N=O)c1cc(O)ccc1O [Dephostatin, reference compound] | 5030 ± 1220 | 2280 ± 619 |  |  |  | 2.2 | inhibition at 5 µM [1, 3]: 35.5%; inhibition at 5 µM [1, 4]: 36.5%; inhibition at 5 µM [1, 5]: 34.6%
O=c1cc(O)cc(/C=C/c2ccc(O)c(O)c2)o1 [Hispidin, reference compound] |  |  |  |  |  | 2.8 | inhibition at 5 µM [1, 13]: 46.3%; inhibition at 5 µM [1, 14]: 38.9%; inhibition at 5 µM [1, 15]: 42.6%; EC50 ([2]; A) EC50 with Triton X-100): 5000 ± 554 nM; EC50 ([2]; B) EC50 without Triton X-100): 1810 ± 828 nM
CC(=O)[C@]1(O)Cc2c(O)c3c(c(O)c2[C@@H](O[C@H]2C[C@H](N)[C@H](O)[C@H](C)O2)C1)C(=O)c1ccccc1C3=O [Idarubicin] | > 20000 | > 20000 |  |  |  |  | 
Cc1c(OCC(F)(F)F)ccnc1C[S+]([O-])c1nc2ccccc2[nH]1 (stereo not shown) [Lansoprazole, reference compound] |  |  | 41.5106 | 48.0924 | 34.9288 | 3.9 | EC50 ([2]; A) EC50 with Triton X-100): 5720 ± 865 nM; EC50 ([2]; B) EC50 without Triton X-100): 1460 ± 398 nM
CN(N=O)c1ccc(O)c(O)c1 [Me-3,4-dephostatin, reference compound] | 3780 ± 867 | 1820 ± 925 | 27.3002 | 29.2005 | 25.3998 | 2.1 | 
CC(=O)NCCc1ccc(O)c(O)c1 [N-Acetyldopamine] | 2650 ± 550 | 1450 ± 222 |  |  |  | 1.8 | 
O=C1C(SCCO)=C(SCCO)C(=O)c2ccccc21 [NSC 95397, reference compound] | > 20000 | > 20000 | 19.1086 | 20.9168 | 17.3004 |  | 
CC(Cc1ccc(O)c(O)c1)C(C)Cc1ccc(O)c(O)c1 (stereo not shown) [Nordihydroguaiaretic acid] | 270 ± 58 | 214 ± 65 |  |  |  | 1.3 | 
N=C1Sc2ccccc2C2=NCCCN12 [PD 404,182, reference compound] |  | 60 ± 12 |  |  |  | 1.4 | inhibition at 5 µM [1, 3]: 101%; inhibition at 5 µM [1, 4]: 101%; inhibition at 5 µM [1, 5]: 100%; EC50 [2, 12]: 81 nM
